Measured values reported in patent US20260250318A1, “COMPOSITIONS AND METHODS FOR CROSSING THE BLOOD BRAIN BARRIER” (VOYAGER THERAPEUTICS, INC., priority 2022, published 2026).

Tested on: brain
Test: Maturation of TTM-001 capsid, NGS enrichment in brain of CD-1 Outbred mice
Type: in vivo
Conditions: NGS fold-enrichment of TTM-001 matured AAV capsid variants in the brain of CD-1 Outbred mice; intravenous 1.0×10^12 VG/dose; 14 days in life; RNA; relative to non-matured TTM-001 control
Description: This Example describes maturation of the TTM-001 (SEQ ID NO: 981 (amino acid) and 983 (DNA), comprising SEQ ID NO: 941) and TTM-002 (SEQ ID NO: 982 (amino acid) and 984 (DNA), comprising SEQ ID NO: 2) capsid variants to further enhance their transduction and biodistribution in the central nervous system and evolve the AAV capsid variants to provide further cross-species compatibility. Two approaches were used to mature the TTM-001 and TTM-002 capsid sequences in order to randomize and mutate within and around the peptide insert comprised within loop IV of the capsid variant. […] In the first maturation approach, sets of three contiguous amino acids were randomized across the mutagenesis region in the TTM-001 and TTM-002 sequences, which spanned from position 450 to position 466, numbered according to SEQ ID NO: 981 and 982. In the second maturation approach, mutagenic primers were used to introduce point mutations at a low frequency, scattered across the mutagenesis region in the TTM-001 and TTM-002 sequences ranging from position 449 to position 466, numbered according to SEQ ID NO: 981 and 982. AAV capsid variants arising from each maturation approach for TTM-001 were pooled together and AAV capsid variants arising from each maturation approach for TTM-002 were also pooled together, for subsequent testing and characterization in mice.
The library of pooled matured AAV capsid variants generated from TTM-001 or library of pooled matured AAV capsid variants generated from the TTM-002 matured AAV capsid variant each were intravenously injected into the tail vein of three female CD-1 Outbred mice (Charles River) at a dose of 1.0×10^12 VG/dose. After 14-days in life, the brains of the mice were isolated and RNA was extracted. Following RNA recovery and RT-PCR amplification, a systematic NGS enrichment analysis was performed to calculate the fold enrichment ratio relative to the corresponding TTM-001 or TTM-002 control, and the peptides comprised within the variants were identified. The data for the TTM-001 matured capsid variants is provided in Table 13 and the data for the TTM-002 matured capsid variants is provided in Table 14.

| Sequence | Fold enrichment over TTM-001 |
| --- | --- |
| KTINGSGSPHFLNQNQQT | 2.359 fold |
| KTINGSGSPHFLRQNQQT | 4.777 fold |
| KTINGSGSPHFMRQNQQT | 2.123 fold |
| KTINGSGSPHGLWQNQQT | 2.181 fold |
| KTINGSGSPHGWAQNQQT | 2.121 fold |
| KTINGSGSPHIYLQNQQT | 2.542 fold |
| KTINGSGSPHIYRQNQQT | 2.782 fold |
| KTINGSGSPHLCLQNQQT | 3.425 fold |
| KTINGSGSPHLFRQNQQT | 2.324 fold |
| KTINGSGSPHLKRQNQQT | 2.564 fold |
| KTINGSGSPHLLFQNQQT | 2.069 fold |
| KTINGSGSPHLLWQNQQT | 3.855 fold |
| KTINGSGSPHLLYQNQQT | 2.983 fold |
| KTINGSGSPHLNWQNQQT | 3.112 fold |
| KTINGSGSPHLRFQNQQT | 2.186 fold |
| KTINGSGSPHLRRQNQQT | 3.493 fold |
| KTINGSGSPHLSCQNQQT | 2.277 fold |
| KTINGSGSPHLSWQNQQT | 3.047 fold |
| KTINGSGSPHLTWQNQQT | 2.637 fold |
| KTINGSGSPHLVCQNQQT | 2.493 fold |
| KTINGSGSPHLVFQNQQT | 2.376 fold |
| KTINGSGSPHLWSQNQQT | 3.857 fold |
| KTINGSGSPHLWTQNQQT | 3.034 fold |
| KTINGSGSPHLYGQNQQT | 2.277 fold |
| KTINGSGSPHLYMQNQQT | 2.615 fold |
| KTINGSGSPHMYAQNQQT | 2.060 fold |

| Sequence | Fold enrichment over TTM-001 |
| --- | --- |
| KTINGSGSPHMYLQNQQT | 3.061 fold |
| KTINGSGSPHPFLQNQQT | 2.916 fold |
| KTINGSGSPHPLFQNQQT | 2.233 fold |
| KTINGSGSPHPYAQNQQT | 2.598 fold |
| KTINGSGSPHRFKQNQQT | 2.223 fold |
| KTINGSGSPHRFRQNQQT | 3.698 fold |
| KTINGSGSPHRLRQNQQT | 2.998 fold |
| KTINGSGSPHRRLQNQQT | 2.030 fold |
| KTINGSGSPHRRMQNQQT | 2.004 fold |
| KTINGSGSPHRRRQNQQT | 3.754 fold |
| KTINGSGSPHRRSQNQQT | 2.497 fold |
| KTINGSGSPHRSRQNQQT | 2.270 fold |
| KTINGSGSPHRTRQNQQT | 3.190 fold |
| KTINGSGSPHRWAQNQQT | 2.350 fold |
| KTINGSGSPHSALWNQQT | 2.261 fold |
| KTINGSGSPHSCAQNQQT | 2.030 fold |
| KTINGSGSPHSCLLNQQT | 3.127 fold |
| KTINGSGSPHSCLQNQQT | 3.559 fold |
| KTINGSGSPHSCSQNQQT | 3.428 fold |
| KTINGSGSPHSEIVNQQT | 4.931 fold |
| KTINGSGSPHSFARNQQT | 2.367 fold |
| KTINGSGSPHSFITNQQT | 2.868 fold |
| KTINGSGSPHSFLLNQQT | 2.341 fold |
| KTINGSGSPHSFLRNQQT | 3.384 fold |
| KTINGSGSPHSFLVNQQT | 2.624 fold |
| KTINGSGSPHSFRLNQQT | 2.158 fold |

| Sequence | Fold enrichment over TTM-001 |
| --- | --- |
| KTINGSGSPHSFVLNQQT | 3.382 fold |
| KTINGSGSPHSFVRNQQT | 2.110 fold |
| KTINGSGSPHSFVVNQQT | 2.335 fold |
| KTINGSGSPHSGLWNQQT | 2.350 fold |
| KTINGSGSPHSHMENQQT | 2.259 fold |
| KTINGSGSPHSHWQNQQT | 2.676 fold |
| KTINGSGSPHSIFSNQQT | 2.110 fold |
| KTINGSGSPHSIWQNQQT | 5.883 fold |
| KTINGSGSPHSKAARTQT | 2.266 fold |
| KTINGSGSPHSKACASQT | 2.775 fold |
| KTINGSGSPHSKACPLQT | 2.285 fold |
| KTINGSGSPHSKACSAQT | 2.754 fold |
| KTINGSGSPHSKAFARQT | 3.082 fold |
| KTINGSGSPHSKAFPRQT | 3.220 fold |
| KTINGSGSPHSKAFRLQT | 4.849 fold |
| KTINGSGSPHSKAFRPQT | 2.499 fold |
| KTINGSGSPHSKAFTRQT | 2.518 fold |
| KTINGSGSPHSKAGCGQT | 5.341 fold |
| KTINGSGSPHSKAGRGQT | 2.058 fold |
| KTINGSGSPHSKAHRLQT | 2.603 fold |
| KTINGSGSPHSKAHRQQT | 2.117 fold |
| KTINGSGSPHSKAHRSQT | 2.819 fold |
| KTINGSGSPHSKAKHLQT | 2.870 fold |
| KTINGSGSPHSKAKLRQT | 3.976 fold |
| KTINGSGSPHSKAKSRQT | 2.739 fold |
| KTINGSGSPHSKALCRQT | 2.048 fold |

| Sequence | Fold enrichment over TTM-001 |
| --- | --- |
| KTINGSGSPHSKALKRQT | 2.836 fold |
| KTINGSGSPHSKALRFQT | 3.894 fold |
| KTINGSGSPHSKALRRQT | 4.330 fold |
| KTINGSGSPHSKALRSQT | 2.648 fold |
| KTINGSGSPHSKALRYQT | 3.076 fold |
| KTINGSGSPHSKALWRQT | 2.015 fold |
| KTINGSGSPHSKANKSQT | 2.056 fold |
| KTINGSGSPHSKANRMQT | 2.508 fold |
| KTINGSGSPHSKAPNHLT | 2.324 fold |
| KTINGSGSPHSKAQAFRT | 2.022 fold |
| KTINGSGSPHSKAQANRT | 2.255 fold |
| KTINGSGSPHSKAQASKT | 2.546 fold |
| KTINGSGSPHSKAQATRT | 2.019 fold |
| KTINGSGSPHSKAQCLFT | 2.421 fold |
| KTINGSGSPHSKAQCRLT | 2.304 fold |
| KTINGSGSPHSKAQCYVT | 2.261 fold |
| KTINGSGSPHSKAQEELT | 2.162 fold |
| KTINGSGSPHSKAQFLRT | 2.156 fold |
| KTINGSGSPHSKAQFRVT | 2.231 fold |
| KTINGSGSPHSKAQFSLT | 2.000 fold |
| KTINGSGSPHSKAQFSRT | 2.847 fold |
| KTINGSGSPHSKAQFSVT | 2.015 fold |
| KTINGSGSPHSKAQFTLT | 2.277 fold |
| KTINGSGSPHSKAQFVLT | 2.006 fold |
| KTINGSGSPHSKAQFVRT | 2.596 fold |
| KTINGSGSPHSKAQFWVT | 2.050 fold |

| Sequence | Fold enrichment over TTM-001 |
| --- | --- |
| KTINGSGSPHSKAQGFRT | 2.279 fold |
| KTINGSGSPHSKAQGVKT | 2.002 fold |
| KTINGSGSPHSKAQGVRT | 2.188 fold |
| KTINGSGSPHSKAQHLRT | 2.741 fold |
| KTINGSGSPHSKAQHSRT | 3.227 fold |
| KTINGSGSPHSKAQILVT | 2.009 fold |
| KTINGSGSPHSKAQIRLT | 3.279 fold |
| KTINGSGSPHSKAQITLT | 3.177 fold |
| KTINGSGSPHSKAQKRLT | 3.872 fold |
| KTINGSGSPHSKAQKRST | 2.151 fold |
| KTINGSGSPHSKAQLAKT | 2.238 fold |
| KTINGSGSPHSKAQLFKT | 2.385 fold |
| KTINGSGSPHSKAQLGKT | 2.000 fold |
| KTINGSGSPHSKAQLGRT | 2.069 fold |
| KTINGSGSPHSKAQLHRT | 2.618 fold |
| KTINGSGSPHSKAQLILT | 2.358 fold |
| KTINGSGSPHSKAQLIVT | 2.235 fold |
| KTINGSGSPHSKAQLKLT | 2.125 fold |
| KTINGSGSPHSKAQLLKT | 2.985 fold |
| KTINGSGSPHSKAQLPWT | 2.169 fold |
| KTINGSGSPHSKAQLRIT | 2.179 fold |
| KTINGSGSPHSKAQLRKT | 2.689 fold |
